“Also recorded” adds a separate entry of the source. Starred links: 1 amine or outer side, 2 acyl side, 3 side chain; linkers in the order of their positions; H or OH if unused. Positions of bridges follow the written chain, without caps; N, C: chain ends. Non-standard residues stand in square brackets, D forms with d. Residues, ends and D or L forms follow the SMILES beside them. Trp(7-aza) = N[C@@H](Cc1c[nH]c2ncccc12)C(=O)O; Tiq1c(1S) = O=C(O)[C@H]1NCCc2ccccc21; mXylylene = c1cc(C[*:1])cc(C[*:2])c1; pXylylene = c1cc(C[*:2])ccc1C[*:1]; Phg = N[C@H](C(=O)O)c1ccccc1; Tle = CC(C)(C)[C@H](N)C(=O)O; NMeS = CN[C@@H](CO)C(=O)O; hCys = N[C@@H](CCS)C(=O)O; Nva = CCC[C@H](N)C(=O)O
molecular target: T1, C5 (Homo sapiens, UniProt P01031); experiment: Human hemolysis assay (RBC lysis assay using complete human sera); type: cell-based; parameters: with complete human sera (Complement Technology, Tyler Tex.) and polypeptides; tissue Complement Technology, Tyler Tex; host or cells: complete human serum; conditions: antibody-sensitized sheep erythrocytes, complete human sera
T1 sequence (P01031 678-1676 limits assumed): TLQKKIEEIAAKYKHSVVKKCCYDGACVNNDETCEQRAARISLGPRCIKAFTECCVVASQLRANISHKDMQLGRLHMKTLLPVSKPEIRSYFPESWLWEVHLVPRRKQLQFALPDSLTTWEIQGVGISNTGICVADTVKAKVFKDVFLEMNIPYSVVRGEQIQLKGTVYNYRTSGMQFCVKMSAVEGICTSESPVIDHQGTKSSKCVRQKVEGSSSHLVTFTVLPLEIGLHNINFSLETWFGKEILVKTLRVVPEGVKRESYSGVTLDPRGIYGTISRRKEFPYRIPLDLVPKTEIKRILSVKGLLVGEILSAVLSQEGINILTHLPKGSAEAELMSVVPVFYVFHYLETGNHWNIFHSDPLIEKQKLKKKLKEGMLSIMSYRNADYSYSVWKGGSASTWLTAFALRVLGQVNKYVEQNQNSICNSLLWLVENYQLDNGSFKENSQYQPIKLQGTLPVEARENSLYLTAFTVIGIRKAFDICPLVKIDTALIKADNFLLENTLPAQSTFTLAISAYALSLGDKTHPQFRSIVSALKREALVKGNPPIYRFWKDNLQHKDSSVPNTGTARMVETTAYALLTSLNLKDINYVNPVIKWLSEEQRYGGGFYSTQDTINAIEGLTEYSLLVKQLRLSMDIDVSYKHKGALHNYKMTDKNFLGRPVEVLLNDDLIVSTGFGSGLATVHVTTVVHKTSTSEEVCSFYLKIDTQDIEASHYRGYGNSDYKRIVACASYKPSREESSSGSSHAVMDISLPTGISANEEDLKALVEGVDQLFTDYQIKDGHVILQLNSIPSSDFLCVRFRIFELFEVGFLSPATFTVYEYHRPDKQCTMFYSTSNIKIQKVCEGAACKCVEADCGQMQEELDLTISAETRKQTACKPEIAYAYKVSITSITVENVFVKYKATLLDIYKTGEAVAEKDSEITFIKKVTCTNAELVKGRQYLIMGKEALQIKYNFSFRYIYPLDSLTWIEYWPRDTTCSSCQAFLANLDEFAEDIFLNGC
T1 sequence (P01031 19-673 limits assumed): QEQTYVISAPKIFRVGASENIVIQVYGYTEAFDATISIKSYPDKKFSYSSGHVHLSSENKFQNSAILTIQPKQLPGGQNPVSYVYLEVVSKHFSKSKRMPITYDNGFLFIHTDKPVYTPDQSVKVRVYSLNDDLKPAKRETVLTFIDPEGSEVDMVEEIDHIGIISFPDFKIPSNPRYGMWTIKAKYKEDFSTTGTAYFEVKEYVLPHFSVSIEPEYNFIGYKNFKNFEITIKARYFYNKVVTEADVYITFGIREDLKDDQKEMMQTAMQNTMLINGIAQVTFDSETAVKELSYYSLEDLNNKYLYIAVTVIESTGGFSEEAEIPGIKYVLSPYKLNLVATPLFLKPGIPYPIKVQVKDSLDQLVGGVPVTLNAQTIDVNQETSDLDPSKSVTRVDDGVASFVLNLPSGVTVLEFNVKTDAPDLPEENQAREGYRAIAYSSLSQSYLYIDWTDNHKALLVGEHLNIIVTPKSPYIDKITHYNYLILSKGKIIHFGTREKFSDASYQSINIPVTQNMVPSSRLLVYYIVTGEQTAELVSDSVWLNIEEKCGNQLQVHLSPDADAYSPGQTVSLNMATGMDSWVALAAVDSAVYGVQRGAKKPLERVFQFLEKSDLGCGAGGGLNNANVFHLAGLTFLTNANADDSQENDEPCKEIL
Protocol: Polypeptides listed in Table 3, as well as their optimized derivatives (see Table 4) were assessed for inhibitor activity using a red blood cell hemolysis assay. […] Human sera was rapidly thawed at 37° C. and then stored on ice until diluted into GVB++. Ten 6-fold serial dilutions of polypeptides (10 mM stock, DMSO) were performed in DMSO and then added to buffer. 50 μl of each polypeptide dilution was combined with sera and 100 μl of cells in individual wells of a 96-well tissue culture-treated clear microtitre plate (USA Scientific, Ocala, Fla.) and resuspended by pipetting. Samples were incubated at 37° C. for one hour. […] Data was fit with a log-logit formula producing a dose-response curve and IC50. As used herein, the term “IC50” refers to the half maximal inhibitory concentration, a value used to indicate the amount of the inhibitor needed to reduce a given reaction or process by half.
The human constant light chain kappa and IgG2 constant heavy chain sequences were used for the constants regions of the antibody. This antibody was expressed from human embryonic kidney cells (HEK293) and purified by Protein A affinity chromatography. […] Human sera was rapidly thawed at 37° C. and then stored on ice until diluted into GVB++. Ten 6-fold serial dilutions of each compound (10 mM stock, DMSO) were performed in DMSO and then added to buffer. 50 μl of each compound dilution was combined with sera and 100 μl of cells in individual wells of a 96-well tissue culture-treated clear microtitre plate (USA Scientific, Ocala, Fla.) and resuspended by pipetting. Samples were incubated at 37° C. for one hour. […] Data was fit with a log-logit formula producing a dose-response curve and IC50 (see FIG. 11A).

Compound	IC50 [µM]
CC(=O)N[C@H]1CSCc2cccc(c2)CSC[C@@H](C(N)=O)NC(=O)[C@H](Cc2c[nH]cn2)NC(=O)[C@H](CO)N(C)C(=O)[C@H](Cc2ccc(O)cc2)NC(=O)[C@H](CCC(=O)O)NC(=O)[C@H](Cc2c[nH]c3ncccc23)NC(=O)[C@H]([C@@H](C)O)NC(=O)[C@H](c2ccccc2)NC1=O [Compound R3015, [mXylyl(1,9)]Ac-C-Phg-T-azaTrp-E-Y-(N—Me)S-H-C-NH2] (Ac-C[Phg]T[Trp(7-aza)]EY[NMeS]HC-NH2; linker 1-9 via mXylylene)	> 3.96
CCC[C@H](NC(=O)[C@@H]1CSCc2cccc(c2)CSC[C@H](NC(=O)[C@H](CCC)NC(C)=O)C(=O)N2CCc3ccccc3[C@H]2C(=O)N[C@@H]([C@@H](C)O)C(=O)N[C@@H](Cc2c[nH]c3ncccc23)C(=O)N[C@@H](CCC(=O)O)C(=O)N[C@@H](Cc2ccc(O)cc2)C(=O)N(C)[C@@H](CO)C(=O)N[C@@H](Cc2c[nH]cn2)C(=O)N1)C(N)=O [Compound R3122, [mXylyl(2,10)]Ac-Nvl-C-Tiq-T-azaTrp-E-Y-(N—Me)S-H-C-Nvl-NH2] (Ac-[Nva]C[Tiq1c(1S)]T[Trp(7-aza)]EY[NMeS]HC[Nva]-NH2; linker 2-10 via mXylylene)	> 50
CCC[C@H](NC(=O)[C@@H]1CCSCc2ccc(cc2)CSCC[C@H](NC(=O)[C@H](CCC)NC(C)=O)C(=O)N[C@@H](c2ccccc2)C(=O)N[C@@H]([C@@H](C)O)C(=O)N[C@@H](Cc2c[nH]c3ncccc23)C(=O)N[C@@H](CCC(=O)O)C(=O)N[C@@H](Cc2ccc(O)cc2)C(=O)N(C)[C@@H](CO)C(=O)N[C@@H](Cc2c[nH]cn2)C(=O)N1)C(N)=O [Compound R3108, [pXylyl(2,10)]Ac-Nvl-homoC-Phg-T-azaTrp-E-Y-(N—Me)S-H-homoC-Nvl-NH2] (Ac-[Nva][hCys][Phg]T[Trp(7-aza)]EY[NMeS]H[hCys][Nva]-NH2; linker 2-10 via pXylylene)	> 75
CCC[C@H](NC(=O)[C@@H](NC(=O)[C@@H]1CCCN1C(=O)[C@H](Cc1ccc(O)cc1)NC(=O)[C@H](CCC(=O)O)NC(=O)[C@H](Cc1c[nH]c2ncccc12)NC(=O)[C@H](Cc1ccc(O)cc1)NC(=O)[C@@H](NC(=O)[C@H](CC(=O)O)NC(=O)[C@@H]1CSCc2cccc(c2)CSC[C@H](NC(C)=O)C(=O)N[C@@H](C(C)C)C(=O)N[C@@H](C)C(=O)N[C@@H](CCCNC(=N)N)C(=O)N[C@@H](Cc2ccccc2)C(=O)N1)C(C)(C)C)c1ccccc1)C(N)=O [Compound R3150, [mXylyl(1,6)]Ac-C-V-A-R-F-C-D-Tbg-Y-azaTrp-E-Y-P-Phg-Nvl-NH2] (Ac-CVARFCD[Tle]Y[Trp(7-aza)]EYP[Phg][Nva]-NH2; linker 1-6 via mXylylene)	0.032

same assay, conditions: relative to parent polypeptide

Compound	change in ability to inhibit red blood cell lysis in words
CC(=O)N[C@H]1CSCc2cccc(c2)CSC[C@@H](C(=O)N[C@H](C(=O)N[C@@H](Cc2ccc(O)cc2)C(=O)N[C@@H](Cc2c[nH]c3ccccc23)C(=O)N[C@@H](CCC(=O)O)C(=O)N[C@@H](Cc2ccccc2)C(N)=O)C(C)C)NC(=O)[C@H](Cc2ccccc2)NC(=O)[C@H](CCCNC(=N)N)NC(=O)[C@H](CCC(=O)O)NC(=O)[C@H](C(C)C)NC1=O [Compound R3124, [mXylyl(1,6)]Ac-C-V-E-R-F-C-V-Y-W-E-F-NH2] (Ac-CVERFCVYWEF-NH2; linker 1-6 via mXylylene)	decrease in the ability
CC(=O)N[C@H]1CSCc2cccc(c2)CSC[C@@H](C(=O)N[C@@H](CC(=O)O)C(=O)N[C@H](C(=O)N[C@@H](Cc2ccc(O)cc2)C(=O)N[C@@H](Cc2c[nH]c3ccccc23)C(=O)N[C@@H](CCC(=O)O)C(=O)N[C@@H](Cc2ccccc2)C(N)=O)C(C)C)NC(=O)[C@H](Cc2ccccc2)NC(=O)[C@H](CCCNC(=N)N)NC(=O)[C@H](CCC(=O)O)NC(=O)[C@H](C(C)C)NC1=O [Compound R3048, [mXylyl(1,6)]Ac-C-V-E-R-F-C-D-V-Y-W-E-F-NH2] (Ac-CVERFCDVYWEF-NH2; linker 1-6 via mXylylene)	increased the ability
CC(=O)N[C@H]1CSCc2cccc(c2)CSC[C@@H](C(=O)N[C@@H](Cc2c[nH]c3ccccc23)C(=O)N[C@@H](CCC(=O)O)C(=O)N[C@@H](Cc2ccccc2)C(N)=O)NC(=O)[C@H](Cc2ccccc2)NC(=O)[C@H](CCCNC(=N)N)NC(=O)[C@H](CCC(=O)O)NC(=O)[C@H](C(C)C)NC1=O [Compound R3125, [mXylyl(1,6)]Ac-C-V-E-R-F-C-W-E-F-NH2] (Ac-CVERFCWEF-NH2; linker 1-6 via mXylylene)	decrease in the ability

molecular target: T1, C5; experiment: Competitive fluorescence polarization (FP) binding assay with probe R3076; parameters: purchased Complement Technology, Tyler, Tex; conditions: not given
Protocol: FP was used for screening competitive polypeptide inhibitors of the C5 protein. […] The BODIPY-TMR dye attached to the C-terminal lysine of the protein and the subsequent labeled probe was purified by HPLC.
Human C5 protein was diluted to 200 nM in assay buffer, composed of TBS (EMD Millipore, Billerica, Mass.)+0.005% Triton-X (Sigma, Saint Louis, Mo.). 10 μl of assay buffer was added to all wells of a black, non-binding, 384-well assay plate (Greiner, Monroe, N.C.) and 10 μl of diluted C5 protein stock was added to experimental and designated control wells.
Probe R3076 (SEQ ID NO: 40) was diluted 1 to 10 in DMSO (Life Technologies, Grand Island, N.Y.) and 30 μl of that stock was diluted in 3 ml of assay buffer to yield a 100 nM stock. 10 μl of this working stock was then added to each well in the assay plate. The assay plate was incubated at room temperature, protected from light, for 20 minutes to allow binding to reach equilibrium.
Test articles listed in Table 7 were subsequently diluted in DMSO then assay buffer, comprising 10 2-fold dilutions and were then added to the assay plate in triplicate, rapidly. The assay plate was then incubated in the Paradigm (Molecular Devices, Sunnyvale, Calif.) plate reader for 60 minutes at 25° C.
After incubation for 60 minutes, the plate was read using the Paradigm FP protocol (Molecular Devices, Sunnyvale, Calif.) and raw polarization values were imported into Graphpad Prism.

competition for / affinity for C5 in words	Compound
weak affinity	CSCC[C@H](N)C(=O)N[C@H]1CSCc2cccc(c2)CSC[C@@H](C(=O)N[C@@H](CC(=O)O)C(=O)N[C@H](C(=O)N[C@@H](Cc2ccc(O)cc2)C(=O)N[C@@H](Cc2c[nH]c3ccccc23)C(=O)N[C@@H](CCC(=O)O)C(N)=O)C(C)C)NC(=O)[C@H](Cc2ccccc2)NC(=O)[C@H](CCCNC(=N)N)NC(=O)[C@H](CCC(=O)O)NC(=O)[C@H](C(C)C)NC1=O [Compound R3043, [mXylyl(2,7)]M-C-V-E-R-F-C-D-V-Y-W-E-NH2] (H-MCVERFCDVYWE-NH2; linker 2-7 via mXylylene)
relatively strong affinity	CCC[C@H](NC(C)=O)C(=O)N[C@H]1CSCc2cccc(c2)CSC[C@@H](C(=O)N[C@@H](CCC)C(=O)N2CCC[C@H]2C(N)=O)NC(=O)[C@H](Cc2c[nH]cn2)NC(=O)[C@H](CO)N(C)C(=O)[C@H](Cc2ccc(O)cc2)NC(=O)[C@H](CCC(=O)O)NC(=O)[C@H](Cc2c[nH]c3ncccc23)NC(=O)[C@H]([C@@H](C)O)NC(=O)[C@H](c2ccccc2)NC1=O [Compound R3011, [mXylyl(2,10)]Ac-Nvl-C-Phg-T-azaTrp-E-Y-(N—Me)S-H-C-Nvl-P-NH2] (Ac-[Nva]C[Phg]T[Trp(7-aza)]EY[NMeS]HC[Nva]P-NH2; linker 2-10 via mXylylene)
most potent	CCC[C@H](NC(C)=O)C(=O)N[C@@H](CS)C(=O)N[C@@H](Cc1ccc(O)cc1)C(=O)N[C@@H](CCC(=O)O)C(=O)N[C@@H](CC(N)=O)C(=O)N[C@H](C(=O)N[C@@H](Cc1ccc(O)cc1)C(=O)N[C@@H](Cc1c[nH]c2ncccc12)C(=O)N[C@@H](CCC(=O)O)C(=O)N[C@@H](Cc1ccc(O)cc1)C(=O)N1CCC[C@H]1C(=O)N[C@H](C(=O)N1CCC[C@H]1C(N)=O)c1ccccc1)C(C)(C)C [Compound R3003, Ac-Nvl-C-Y-E-N-Tbg-Y-azaTrp-E-Y-P-Phg-P-NH2] (Ac-[Nva]CYEN[Tle]Y[Trp(7-aza)]EYP[Phg]P-NH2)

Compound	competition for / affinity for C5 in words
CCC[C@H](NC(=O)[C@H](Cc1ccc(O)cc1)NC(=O)[C@H](CC(N)=O)NC(=O)[C@H](CCC)NC(=O)[C@H](CCC(=O)O)NC(=O)[C@@H](NC(=O)[C@H](Cc1c[nH]c2ncccc12)NC(=O)[C@@H](NC(=O)[C@H](CS)NC(=O)[C@H](Cc1ccc(O)cc1)NC(=O)[C@@H]1CCCN1C(=O)[C@H](Cc1ccc(O)cc1)NC(C)=O)c1ccccc1)C(C)(C)C)C(=O)N[C@@H](CCC(=O)O)C(N)=O [Compound R3023, Ac-Y-P-Y-C-Phg-azaTrp-Tbg-E-Nvl-N-Y-Nvl-E-NH2] (Ac-YPYC[Phg][Trp(7-aza)][Tle]E[Nva]NY[Nva]E-NH2)	no activity at the highest concentration tested; also recorded: not detected at the highest concentration tested; also recorded: no affinity

From patent US11707503B2, “Modulators of complement activity” (Ra Pharmaceuticals, Inc., priority 2015, dated 2023)
